The values that follow are results of earlier work, collected in patent US20190000808A1, “COMPOSITION AND METHODS FOR THE TREATMENT OF BLEPHOPHAROPTOSIS” (Allergan, Inc., priority 2015, published 2019).

Data set [1] relates to alpha-1 adrenergic receptors on Muller's muscle. The note with it: single drop, typically 2.5%; temporary reversal of ptosis.

As for `CC[C@@H]1C(=O)OC[C@@H]1Cc1cncn1C` [Pilocarpine, (3S,4R)-3-Ethyl-4((1-methyl-1H-imidazol-5-yl)methyl)dihydrofuran-2(3H)-one], the tolerability entry with accommodation of the eye (topical concentrations above 0.5%, side effects red eyes, ocular pain, brow ache, headache) was “not tolerated”. The “effect on accommodation of the eye” value in the data set on accommodation of the eye (topical concentrations below 0.5%) is reported as “minimal effect”. `CNC[C@H](O)c1cccc(O)c1` [phenylephrine]: the eyelid elevation entry in data set [1] is on record as “causes eyelid elevation”.
